Assay results from US20080033026A1, “Antimicrobial compositions, methods and systems” (priority 2006, published 2008).

Assays:
Type in all cases: cell-based
[1] = tested on: Candida albicans (ATCC 10231); test: MIC and MBC determination (broth dilution)
Procedure: (§1) The determination of the MIC and MBC of 9-decenoic acid conformed to the procedure printed in the Federal Register, June 1994 and the present NCCLS M11-A4 protocol. Challenge organisms were prepared as follows. The MIC and MBC of 9-decenoic acid and the methyl ester of 9-decenoic acid were determined for the following challenge organisms: Staphylococcus aureus (ATCC 6538), Pseudomonas aeruginosa (ATCC 15442), Staphylococcus epidermidis (ATCC 12228), Klebsiella pneumoniae (ATCC 4352), Escherichia coli 0157:H7 (ATCC 43895) and Candida albicans (ATCC 10231). Stock cultures of each organism were transferred onto suitable culture media, Mueller-Hinton Agar (MHA) plates, and incubated for 24 hours (+2 hours) at 37° C. (+2° C.). On the day of the test, the top of at least three to five well-isolated colonies were transferred via wire loop to a tube containing 4 to 5 ml of Trypticase Soy Broth (TSB). The TSB culture was incubated for 2 to 6 hours and turbidity was adjusted with sterile saline to achieve the turbidity of a McFarland 0.5 Standard.
(§2) The concentrated 9-decenoic acid (97%) was diluted in Mueller-Hinton Broth (MHB) to yield a 25,000 ppm stock solution of the 9-decenoic acid. For each organism, 12 dilutions of the 9-decenoic acid in MHB were prepared ranging from 0.25% to 0.00049%. The test solution of the methyl ester of 9-decenoic acid was formulated in the same manner.
(§3) A 2-ml aliquot of appropriately diluted 9-decenoic acid solution or methyl ester of 9-decenoic acid was placed in each tube. Each tube was inoculated with 0.05 ml of a 1:10 dilution of one challenge organism. Tubes were incubated at 37° C. (±2° C.) for 20-24 hours and observed for microbial growth visually and by spectrophotometer. […] (±2° C.) for 20-24 hours and visually observed for growth.
(§4) Controls were run for sterility, viability and organism confirmation. It was determined that all cultures were viable and pure.
(§5) The MBC was defined as the concentration of 9-decenoic acid or the methyl ester of 9-decenoic acid that completely eradicated viable organisms from the test system.

[2] = tested on: Escherichia coli 0157:H7 (ATCC 43895); test: MIC and MBC determination (broth dilution)
Procedure: as §1, §2, §3, §4, §5

[3] = tested on: Klebsiella pneumoniae (ATCC 4352); test: MIC and MBC determination (broth dilution); settings: Mueller-Hinton Broth, 20-24 h, 37° C.
Procedure: as §1, §2, §3, §4, §5

[4] = tested on: Pseudomonas aeruginosa (ATCC 15442); test: MIC and MBC determination (broth dilution); settings: Mueller-Hinton Broth, 20-24 h, 37° C.
Procedure: as §1, §2, §3, §4, §5

[5] = tested on: Aspergillus flavus (ATCC 5917); test: MIC on Potato Dextrose Agar; settings: PDA agar, 25-30° C.
Procedure: (§6) The efficacy of antimicrobial compositions in accordance with aspects of the invention against the following organisms was determined as follows. The following organisms were incubated in the presence of varying concentrations of 9-decenoic acid (9-DA) on an agar surface: Aspergillus parasiticus (ATCC 56857), Trichoderma virens (ATCC 9645), Aspergillus flavus (ATCC 96045), Cladosporium cladosporiodes (ATCC 16022), Aspergillus flavus (ATCC 5917), Aspergillus oryzae (ATCC 10124), Aspergillus parasiticus (ATCC 13539), Ulocladium atrum (ATCC 52426), Candida albicans (ATCC 11651), Aspergillus niger (ATCC 11414).
(§7) Fungal spores were hydrated in 0.1% Tween 80 and then plated onto Potato Dextrose Agar (PDA) (Difco # 213400; Becton, Dickinson and Company, Sparks, Md.) and incubated at 25-30° C. for six (6) days. The spores were washed from the surface with 5 ml of 0.1% Tween 80 and enumerated.
(§8) PDA plates were prepared according to the manufacturer's instructions through sterilization. The agar was tempered to approximately 50° C. and filter sterilized. Antimicrobial compositions containing 9-DA were added by percent weight to molten autoclaved PDA media, with consideration of specific gravity (0.915 g/mL for 9-DA) and purity (98% for 9-DA). The agar was thoroughly mixed and poured into sterile petri plates and allowed to solidify.
(§9) The agar plates were inoculated with the spore solution to achieve 10^2 spores/plate. The plates were incubated at 25-30° C. in Ziploc bags with a wet paper towel to keep the moisture level high. The plates were examined for growth at 1, 2, 3, 4, 8, 11, 15, 17, 23, 29 and 31 days. The percent coverage of growth on the agar surface was recorded at each sample point.

[6] = tested on: Aspergillus flavus (ATCC 96045); test: MIC on Potato Dextrose Agar; settings: PDA agar, 25-30° C.
Procedure: as §6, §7, §8, §9

[7] = tested on: Aspergillus niger (ATCC 11414); test: MIC on Potato Dextrose Agar; settings: PDA agar, 25-30° C.
Procedure: as §6, §7, §8, §9

[8] = tested on: Aspergillus oryzae (ATCC 10124); test: MIC on Potato Dextrose Agar; settings: PDA agar, 25-30° C.
Procedure: as §6, §7, §8, §9

[9] = tested on: Aspergillus parasiticus (ATCC 13539); test: MIC on Potato Dextrose Agar; settings: PDA agar, 25-30° C.
Procedure: as §6, §7, §8, §9

[10] = tested on: Aspergillus parasiticus (ATCC 56857); test: MIC on Potato Dextrose Agar; settings: PDA agar, 25-30° C.
Procedure: as §6, §7, §8, §9

[11] = tested on: Candida albicans (ATCC 11651); test: MIC on Potato Dextrose Agar; settings: PDA agar, 25-30° C.
Procedure: as §6, §7, §8, §9

[12] = tested on: Cladosporium cladosporiodes (ATCC 16022); test: MIC on Potato Dextrose Agar; settings: PDA agar, 25-30° C.
Procedure: as §6, §7, §8, §9

[13] = tested on: Trichoderma virens (ATCC 9645); test: MIC on Potato Dextrose Agar; settings: PDA agar, 25-30° C.
Procedure: as §6, §7, §8, §9

[14] = tested on: Ulocladium atrum (ATCC 52426); test: MIC on Potato Dextrose Agar; settings: PDA agar, 25-30° C.
Procedure: as §6, §7, §8, §9

[15] = Mueller-Hinton Broth, 20-24 h, 37° C.

C=CCCCCCCCC(=O)O [9-decenoic acid]
0.0625%: MIC [1, 15] | MBC ([1]; subculture on TSA) | MIC [3] | MIC [4]
0.05%: MIC [5] | MIC [6] | MIC [7] | MIC [8] | MIC [9] | MIC [10] | MIC [13]
0.025%: MIC [11] | MIC [12] | MIC [14]
0.125%: MIC [2, 15] | MBC ([2]; subculture on TSA)
